The record followed here is patent US8546377B2 (AbbVie Inc., priority 2009, dated 2013).

pEC50: −log10 of the molar value. Where two headings read alike, the source gives them in different places.

By EC50 is commonly meant the concentration at which the effect is half-maximal. The Emax is the size of the effect at its maximum, as opposed to the concentration needed. One may read the pEC50 as the negative decadic logarithm of the EC50, by convention in mol/L.

In one assay the target is T1, 5HT2C receptors (Homo sapiens, UniProt P28335).
T1 sequence (P28335 33-458): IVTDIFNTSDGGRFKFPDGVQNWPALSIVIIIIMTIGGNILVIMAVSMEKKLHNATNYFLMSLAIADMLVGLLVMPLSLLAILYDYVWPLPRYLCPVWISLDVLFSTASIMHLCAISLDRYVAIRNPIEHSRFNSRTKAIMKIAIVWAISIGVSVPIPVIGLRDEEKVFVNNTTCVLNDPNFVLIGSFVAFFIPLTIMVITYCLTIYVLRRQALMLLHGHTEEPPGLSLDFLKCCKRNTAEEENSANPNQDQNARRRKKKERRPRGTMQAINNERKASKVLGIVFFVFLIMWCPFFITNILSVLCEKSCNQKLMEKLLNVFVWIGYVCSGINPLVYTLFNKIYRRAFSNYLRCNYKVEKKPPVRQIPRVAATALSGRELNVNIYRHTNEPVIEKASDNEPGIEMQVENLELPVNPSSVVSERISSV
Put plainly: Human 5-HT2C functional assay in CHO-K1 cells (calcium flux, FLIPR). The format is cell-based. On the set-up: expressed in transfected cells; host or cells: CHO-K1 cells. To be noted: for EC50: CHO-K1 cells over-expressing 5HT2C, calcium flux, read-out: EC50 (μM), 5-HT2c Agonist Activity; for Emax: percentage relative to the effect of serotonin. Here is the method: (§1) (iii) Human 5-HT2C and 5-HT2B Functional Assay in CHO-K1 Cells
(§2) CHO-K1 cells over-expressing 5HT2C or 5HT2B receptors were grown in 1272 cm^2 flasks to 70-80% confluency in UltraCHO media supplemented with 1% dialyzed fetal bovine serum (FBS), 250 μg/mL zeocin, 100 U/mL penicillin/streptomycin, and 400 μg/mL geneticin. The cells were dissociated from the flasks using 0.05% trypsin, resuspended in freezing media and stored in liquid nitrogen until use. Calcium flux experiments were done using frozen cells. The cells were diluted in media containing 1% dialyzed FBS and 100 U/mL penicillin/streptomycin and plated into 384-well poly-D-Lysine coated plates (15,000 cells/well). Then the plates were incubated overnight in a cell incubator at 37° C., 5% CO2. On the next day, the growth media was replaced with media without FBS and further incubated overnight. On day three, the changes in intracellular Ca^2+ were determined using calcium sensitive fluorescent dye, Ca4 (MDS Analytical Technologies, Sunnyvale, Calif.) by loading 15 μL of diluted dye with 2.5 mM probenecid into the cells containing media and incubated at room temperature for 60 minutes in dark.
(§3) Fluorescence measurements were read at 25° C. at an excitation wavelength of 480 nm and an emission wavelength of 530 nm in FLIPR (MDS). Baseline fluorescence was measured for the first 10 seconds and then 15 μL of 4× concentrations of serotonin/test compounds was added to the cell plate. The fluorescence intensity was captured every second for the first 1 minute followed by every 5 seconds for an additional 2 minutes. The increase in fluorescent response was determined and was normalized to the response of serotonin. The concentration response of compounds was done from a starting concentration of 10 μM, 1:10 dilution across 6 wells with a final dimethyl sulfoxide concentration of 0.2% and was fitted using a 4-parameter logistic equation. The concentration at which a compound exerts half its maximal effect was named as ‘effective concentration 50’ or ‘EC50’.
(§4) Emax is the maximum functional response or efficacy expressed as a percentage relative to the effect of serotonin.
For orientation: A change in cytosolic calcium serves as a functional read-out for many receptors and channels.

The target in the next assay is T2, 5HT2B receptors (Homo sapiens, UniProt P41595).
T2 construct: expressed in transfected cells; host or cells: CHO-K1 cells
T2 sequence (P41595 whole entry): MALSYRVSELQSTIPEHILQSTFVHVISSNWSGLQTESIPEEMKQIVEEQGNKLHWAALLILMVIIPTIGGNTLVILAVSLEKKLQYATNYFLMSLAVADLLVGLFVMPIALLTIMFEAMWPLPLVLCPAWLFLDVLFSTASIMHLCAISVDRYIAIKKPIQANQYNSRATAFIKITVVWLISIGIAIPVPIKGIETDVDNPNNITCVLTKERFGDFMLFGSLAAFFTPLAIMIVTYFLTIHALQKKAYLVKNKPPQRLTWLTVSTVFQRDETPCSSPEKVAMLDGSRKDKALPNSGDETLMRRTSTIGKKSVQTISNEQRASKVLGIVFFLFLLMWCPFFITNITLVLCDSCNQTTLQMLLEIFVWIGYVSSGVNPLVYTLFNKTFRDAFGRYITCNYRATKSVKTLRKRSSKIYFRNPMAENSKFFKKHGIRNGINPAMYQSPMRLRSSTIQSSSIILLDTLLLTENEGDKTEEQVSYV
Put plainly: Human 5-HT2B functional assay in CHO-K1 cells (calcium flux, FLIPR). As to conditions: for EC50: CHO-K1 cells over-expressing 5HT2B, calcium flux, read-out: EC50 (μM), 5-HT2B Agonist Activity. The format is cell-based. Here is the method:
as §1, §2, §3, §4

Setting [1] is: CHO-K1 cells, read-out: Emax (%), 5-HT2c Agonist Activity.
[2] abbreviates: CHO-K1 cells, percentage relative to the effect of serotonin, read-out: Emax (%), 5-HT2B Agonist Activity.
The mark [3] stands for this setting: CHO-K1, read-out: Emax (%), 5-HT2c Agonist Activity, CHO-K1 cells.

Regarding `CS(=O)(=O)c1ccc(-c2ccc3c(c2)OCC[C@H]2CNCCN32)cc1` [Example 230, (4aS)-9-[4-(methylsulfonyl)phenyl]-2,3,4,4a,5,6-hexahydro-1H-pyrazino[2,1-d][1,5]benzoxazepine], the EC50 at 5HT2C receptors was 0.07 µM; at 5HT2B receptors, more than 10 µM. In addition, at 5HT2C receptors (setting [1]), the Emax was found to be 90%.

In the case of `O=C1CC2CNCCN2c2cc(-c3csc4ccccc34)ccc2N1` (stereo not drawn) [Example 66, 10-(1-benzothiophen-3-yl)-1,2,3,4,4a,5-hexahydropyrazino[1,2-a][1,5]benzodiazepin-6(7H)-one], the values for the EC50 on 5HT2C receptors and on 5HT2B receptors were 0.09 µM and more than 10 µM, respectively. Also, the Emax at 5HT2C receptors (setting [1]) came out at 100%.

Regarding `CC(=O)c1ccccc1-c1ccc2c(c1)N1CCNC[C@@H]1CCO2` [Example 197, 1-{2-[(4aS)-2,3,4,4a,5,6-hexahydro-1H-pyrazino[2,1-d][1,5]benzoxazepin-10-yl]phenyl}ethanone], the EC50 on 5HT2C receptors came out at 0.07 µM; at 5HT2B receptors it was 1 µM. For the same molecule, the results for the Emax on 5HT2C receptors (setting [1]) and at 5HT2B receptors (setting [2]) were more than 120% and 15%, respectively.

In the case of `c1ccc(-c2ccc3c(c2)N2CCNC[C@@H]2CCO3)cc1` [Example 187, (4aS)-10-phenyl-2,3,4,4a,5,6-hexahydro-1H-pyrazino[2,1-d][1,5]benzoxazepine], the EC50 at 5HT2C receptors worked out at 0.03 µM; on 5HT2B receptors, 6 µM. In addition, the maximum response (Emax) on 5HT2C receptors (setting [1]) is more than 120%; at 5HT2B receptors (setting [2]) it was 10%.

For the molecule `c1ccc(-c2cccc3c2OCC[C@H]2CNCCN32)cc1` [Example 223, (4aS)-8-phenyl-2,3,4,4a,5,6-hexahydro-1H-pyrazino[2,1-d][1,5]benzoxazepine], the EC50 is 0.02 µM at 5HT2C receptors and more than 10 µM on 5HT2B receptors. On 5HT2C receptors (setting [1]), the Emax stood at 100%.

Consider `CCN1CCC2CN(C)CCN2c2ccc(Cl)cc21` (stereo not drawn) [Example 82, 9-chloro-7-ethyl-3-methyl-1,2,3,4,4a,5,6,7-octahydropyrazino[1,2-a][1,5]benzodiazepine], for which the concentration giving a half-maximal response (EC50) on 5HT2C receptors is 0.6 µM; at 5HT2B receptors, more than 10 µM. Besides, the Emax on 5HT2C receptors (setting [1]) is 90%.

In the case of `Cc1ccc(-c2ccc3c(c2)N2CCNC[C@@H]2CCO3)cc1` [Example 191, (4aS)-10-(4-methylphenyl)-2,3,4,4a,5,6-hexahydro-1H-pyrazino[2,1-d][1,5]benzoxazepine], the values for the EC50 on 5HT2C receptors and at 5HT2B receptors were 0.4 µM and more than 10 µM, respectively. The Emax on 5HT2C receptors (setting [1]) is more than 120%.

Take `O=C1NC[C@@H]2CNCC[C@@H]2c2ccccc21` (relative stereo) [Example 180, cis-1,2,3,4,4a,5,6,11b-octahydro-7H-pyrido[3,4-d][2]benzazepin-7-one]: the Emax at 5HT2C receptors (setting [3]) was more than 120%. Besides, the EC50 on 5HT2C receptors was 0.2 µM; on 5HT2B receptors, more than 10 µM.

For `CC(C)N1CCN2c3ccccc3OCC[C@H]2C1` [Example 264, (4aS)-3-isopropyl-2,3,4,4a,5,6-hexahydro-1H-pyrazino[2,1-d][1,5]benzoxazepine], the Emax at 5HT2C receptors (setting [3]) amounted to 50%. Also, the EC50 at 5HT2C receptors is 0.9 µM; on 5HT2B receptors, more than 10 µM.

For `Fc1cccc2c1OCC[C@H]1CNCCN21` [Example 139, (4aS)-8-fluoro-2,3,4,4a,5,6-hexahydro-1H-pyrazino[2,1-d][1,5]benzoxazepine], the negative-log EC50 (pEC50) on 5HT2C receptors was 9.40; at 5HT2B receptors it was 7.22. For the same molecule, the maximal response (Emax) at 5HT2C receptors (setting [3]) was more than 120%; at 5HT2B receptors (CHO-K1, read-out: Emax (%), 5-HT2B Agonist Activity), 20%.

With `O=C1C[C@H]2CNCCN2c2cc(OCCc3ccccc3Cl)ccc2N1` [Example 172, (4aS)-10-[2-(2-chlorophenyl)ethoxy]-1,2,3,4,4a,5-hexahydropyrazino[1,2-a][1,5]benzodiazepin-6(7H)-one], the values for the EC50 at 5HT2C receptors and at 5HT2B receptors were 0.002 µM and more than 10 µM, respectively. Moreover, the maximal effect (Emax) on 5HT2C receptors (setting [1]) was more than 120%.

For `C[C@H](Oc1ccc2c(c1)N1CCNCC1CC(=O)N2)c1ccccc1` (stereo partly drawn) [Example 154, 10-[(1S)-1-phenylethoxy]-1,2,3,4,4a,5-hexahydropyrazino[1,2-a][1,5]benzodiazepin-6(7H)-one], the EC50 at 5HT2C receptors was 0.103 µM; at 5HT2B receptors, 0.7 µM. Moreover, the figures for the Emax at 5HT2C receptors (setting [1]) and at 5HT2B receptors (setting [2]) were more than 120% and 44%, respectively.

In the case of `O=C1CC2CNCCN2c2cc(-c3cccc(OCc4ccccc4)c3)ccc2N1` (stereo not drawn) [Example 95, 10-[3-(benzyloxy)phenyl]-1,2,3,4,4a,5-hexahydropyrazino[1,2-a][1,5]benzodiazepin-6(7H)-one], the EC50 on 5HT2C receptors is 0.02 µM; on 5HT2B receptors, more than 10 µM. Moreover, at 5HT2C receptors (setting [1]), the Emax is more than 120%.

`O=C1CC2CNCCN2c2cc(-c3cnn(Cc4ccccc4)c3)ccc2N1` (stereo not drawn) [Example 56, 10-(1-benzyl-1H-pyrazol-4-yl)-1,2,3,4,4a,5-hexahydropyrazino[1,2-a][1,5]benzodiazepin-6(7H)-one]: the EC50 at 5HT2C receptors was 1 µM; on 5HT2B receptors it was more than 10 µM. For the same molecule, the Emax at 5HT2C receptors (setting [1]) worked out at 110%.

Turning to `O=C1CC2CNCCN2c2cc(-c3ccsc3)ccc2N1` (stereo not drawn) [Example 72, 10-(3-thienyl)-1,2,3,4,4a,5-hexahydropyrazino[1,2-a][1,5]benzodiazepin-6(7H)-one], the values for the EC50 on 5HT2C receptors and on 5HT2B receptors were 0.07 µM and 2 µM, respectively. Also, the values for the Emax on 5HT2C receptors (setting [1]) and on 5HT2B receptors (setting [2]) were more than 120% and 20%, respectively.

As for `COc1cccc2c1OCC[C@H]1CNCCN21` [Example 241, (4aS)-8-methoxy-2,3,4,4a,5,6-hexahydro-1H-pyrazino[2,1-d][1,5]benzoxazepine], the pEC50 on 5HT2C receptors is 7.70; on 5HT2B receptors it was less than 5.00. For the same molecule, the Emax on 5HT2C receptors (setting [3]) was 90%.

In the case of `O=C1CC2CNCCN2c2cc(CCc3cccc(F)c3)ccc2N1` (stereo not drawn) [Example 145, 10-[2-(3-fluorophenyl)ethyl]-1,2,3,4,4a,5-hexahydropyrazino[1,2-a][1,5]benzodiazepin-6(7H)-one], the EC50 at 5HT2C receptors was 0.006 µM; at 5HT2B receptors it was more than 10 µM. Besides, at 5HT2C receptors (setting [1]), the Emax is more than 120%.

Consider `O=C1CC2CNCCN2c2cc(-c3cccc(-n4cccn4)c3)ccc2N1` (stereo not drawn) [Example 73, 10-[3-(1H-pyrazol-1-yl)phenyl]-1,2,3,4,4a,5-hexahydropyrazino[1,2-a][1,5]benzodiazepin-6(7H)-one], for which the values for the EC50 at 5HT2C receptors and on 5HT2B receptors were 0.03 µM and more than 10 µM, respectively. Also, the Emax at 5HT2C receptors (setting [1]) was 110%.

`CCN1C(=O)CC2CNCCN2c2ccc(Cl)cc21` (stereo not drawn) [Example 77, 9-chloro-7-ethyl-1,2,3,4,4a,5-hexahydropyrazino[1,2-a][1,5]-benzodiazepin-6(7H)-one]: the half-maximal effective concentration (EC50) was 0.2 µM on 5HT2C receptors and more than 10 µM on 5HT2B receptors. In addition, the maximal response (Emax) at 5HT2C receptors (setting [1]) was 100%.

Take `C[C@@H](Oc1ccc2c(c1)N1CCNCC1CC(=O)N2)c1ccccc1` (stereo partly drawn) [Example 153, 10-[(1R)-1-phenylethoxy]-1,2,3,4,4a,5-hexahydropyrazino[1,2-a][1,5]benzodiazepin-6(7H)-one]: the EC50 at 5HT2C receptors turned out to be 0.01 µM; at 5HT2B receptors, 0.1 µM. The Emax on 5HT2C receptors (setting [1]) stood at 110%; on 5HT2B receptors (setting [2]) it was 20%.

Take `COc1cccc(-c2ccc3c(c2)N2CCNC[C@@H]2CCO3)c1` [Example 193, (4aS)-10-(3-methoxyphenyl)-2,3,4,4a,5,6-hexahydro-1H-pyrazino[2,1-d][1,5]benzoxazepine]: the EC50 amounted to 0.008 µM on 5HT2C receptors and 1 µM at 5HT2B receptors. Also, the Emax on 5HT2C receptors (setting [1]) was more than 120%; at 5HT2B receptors (setting [2]), 25%.

`O=C1CC2CNCCN2c2cc(/C=C/c3ccccc3F)ccc2N1` (stereo not drawn) [Example 141, 10-[(E)-2-(2-fluorophenyl)vinyl]-1,2,3,4,4a,5-hexahydropyrazino[1,2-a][1,5]benzodiazepin-6(7H)-one]: the EC50 on 5HT2C receptors was 0.004 µM. Moreover, the maximal response (Emax) at 5HT2C receptors (setting [1]) was found to be 88%.
